Molecules are shown by their SMILES. Values after ≈ are worked out from the molar mass of the structure shown.

The values that follow come from ChEMBL document CHEMBL3997825, “Discovery of 2-oxopiperazine dengue inhibitors by scaffold morphing of a phenotypic high-throughput screening hit” (Bioorg Med Chem Lett, 2017).

Data set [1] deals with dengue virus type 1. Kind of data set: Antiviral activity against DENV1 West Pacific infected in BHK21 cells assessed as reduction in viral titer after 48 hrs by plaque assay. It is filed as functional, cell-based. The settings on record: BHK-21, 48 h.
Data set [2] has as its system dengue virus type 4. Briefly: Antiviral activity against DENV4 H241 infected in BHK21 cells assessed as reduction in viral titer after 72 hrs by plaque assay. It is filed as functional, cell-based. To be noted: H241, BHK-21, 72 h.
The subject of data set [3] is dengue virus type 3. Briefly: Antiviral activity against DENV3 H87 infected in BHK21 cells assessed as reduction in viral titer after 72 hrs by plaque assay. It is filed as functional, cell-based. To be noted: H87, BHK-21, 72 h.
Data set [4] relates to dengue virus type 2. Kind of data set: Antiviral activity against DENV2 TSVO1 infected in C6/36 cells assessed as reduction in viral titer after 72 hrs by plaque assay. It is filed as functional, cell-based. To be noted: TSVO1, C6/36, 72 h.
In data set [5] the test system is dengue virus type 2. Briefly: Antiviral activity against DENV2 New Guinea C infected in human A549 cells assessed as reduction in viral titer after 48 hrs by plaque assay. It is filed as functional, cell-based. To be noted: Thailand/NGS-C/1944, A549, 48 h.
Data set [6] is described as follows: Cytotoxicity against human HepG2 cells. It is filed as cell-based.
For data set [7], the system named is dengue virus type 3. Kind of data set: Antiviral activity against DENV3 MY05-34640 infected in human A549 cells assessed as decrease in envelope protein production after 48 hrs by immunodetection method. To be noted: MY05-34640, A549, 48 h. It is filed as functional, cell-based.
The nature of data set [8]: Solubility of the compound at pH 6.8. It is filed as physicochemical. The settings on record: buffer.
The subject of data set [9] is dengue virus type 2. Kind of data set: Antiviral activity against DENV2 MY97-10340 infected in human A549 cells assessed as decrease in envelope protein production after 48 hrs by immunodetection method. It is filed as functional, cell-based. To be noted: MY97-10340, A549, 48 h.
A short description of data set [10]: Intrinsic clearance in human liver microsomes. To be noted: read-out: CLH. It is filed as ADME, microsome. For orientation: Liver microsomes are vesicles of endoplasmic reticulum, rich in cytochrome P450 enzymes.
Data set [11] is described as follows: Lipophilicity, log D of the compound at pH 7.4. It is filed as physicochemical. To be noted: buffer.
In data set [12] the test system is dengue virus type 4. Briefly: Antiviral activity against DENV4 MY01-22713 infected in human A549 cells assessed as decrease in envelope protein production after 48 hrs by immunodetection method. It is filed as functional, cell-based. The settings on record: MY01-22713, A549, 48 h.
Data set [13] has as its system dengue virus type 1. Briefly: Antiviral activity against DENV1 MY97-10245 infected in human A549 cells assessed as decrease in envelope protein production after 48 hrs by immunodetection method. It is filed as functional, cell-based. To be noted: MY97-10245, A549, 48 h.

Broadly, the EC50 is the concentration that produces a half-maximal response. For `COc1ccc(-c2csc(NC(=O)c3cc(C(C)(C)C)cc(C(C)(C)C)c3)n2)cc1`, the EC50 in the data set with dengue virus type 1 [1], with dengue virus type 4 [2], in the data set with dengue virus type 3 [3], with dengue virus type 2 [4] and with dengue virus type 2 [5] was 1000 to 4100 nM each time.
By CC50 is commonly meant the concentration at which the toxic effect on the cells reaches its halfway point. The low end stands for greater toxicity to the cells, the high end for lower toxicity to the cells. For orientation: solubility means the concentration that dissolves in the medium under given conditions. Lower therefore signals a poorly soluble substance. As a reminder, the logD is the decadic logarithm of the distribution of all forms, ionised or not, between an organic phase and buffer at a given pH. The low end stands for lower lipophilicity, the high end for higher lipophilicity. Turning to `CSc1cccc(N2C(=O)c3cc4ccc(C(F)(F)F)cc4n3C[C@@]2(C)C(=O)NC2CCCC2)c1`, in [6], the CC50 was determined as 20 µM. For the same compound, the EC50 with dengue virus type 3 [7] is 10 nM; in the data set on dengue virus type 2 [9], 90 nM; with dengue virus type 4 [12], 50 nM; in the data set on dengue virus type 1 [13] it was 40 nM. The solubility in data set [8] was less than 4 µM. For the same compound, the microsomal CLint in [10] was greater than 735 µL/min/mg. For the same compound, in data set [11], the logD was greater than 4.5.
With `CSc1cccc(N2C(=O)CN(c3cccc(C(F)(F)F)c3)CC2C(=O)NC2CCCC2)c1` (stereo not drawn), the 50% cytotoxic concentration (CC50) in data set [6] came to 20 µM. Moreover, the EC50 in the data set on dengue virus type 3 [7] was 300 nM; with dengue virus type 2 [9], 1000 nM; in the data set on dengue virus type 4 [12], 600 nM; in the data set on dengue virus type 1 [13], 700 nM. This compound also had a solubility in [8] of 4 µM (≈ 1.91 µg/mL).
The compound `O=C(NC1CCCC1)[C@@H]1CN(c2ccc(C(F)(F)F)cc2)CC(=O)N1c1ccc2ccsc2c1` displayed a CC50 in data set [6] of 20 µM. For the same compound, the EC50 in the data set with dengue virus type 3 [7] came out at 30 nM; in the data set with dengue virus type 2 [9], 100 nM; in the data set on dengue virus type 4 [12] it was 30 nM; with dengue virus type 1 [13] it was 70 nM. For the same compound, in [8], the solubility was less than 4 µM. Also, the microsomal CLint in data set [10] worked out at 59 µL/min/mg. Also, the logD in data set [11] was greater than 4.5.
Regarding `CSc1cncc(N2C(=O)CN(c3cccc(C(F)(F)F)c3)CC2C(=O)NC2CCCC2)c1` (stereo not drawn), the CC50 in data set [6] was 26 µM. Besides, the EC50 in the data set on dengue virus type 3 [7] stood at 200 nM; with dengue virus type 2 [9] it was 1200 nM; with dengue virus type 4 [12] it was 600 nM; in the data set on dengue virus type 1 [13] it was 400 nM. In addition, the solubility in data set [8] was 40 µM (≈ 19.1 µg/mL).
In turn, `CSc1cccc(N2C(=O)c3ccc(-c4ccco4)n3CC2(C)C(=O)NC2CCCC2)c1` (stereo not drawn) came in with a CC50 in data set [6] greater than 50 µM. Further, the EC50 in the data set with dengue virus type 3 [7] came to 90 nM; in the data set on dengue virus type 2 [9] it was 500 nM; with dengue virus type 4 [12], 420 nM; with dengue virus type 1 [13], 320 nM.
